Assay results: patent publication US7273864B2, “Compositions and methods for inducing osteogenesis” (The Scripps Research Institute, priority 2002, dated 2007)

Assays:
MC3T3-E1 cells = assay: Terminal differentiation of MC3T3-E1 pre-osteoblast cells; type: cell-based, mouse
From the text: Mouse MC3T3-E1 cells are progenitor cells committed to an osteoblast lineage. […] Since MC3T3-E1 cells already have high levels of endogenous Cbfa1/Runx2, slight up-regulation of this gene may be sufficient to promote terminal differentiation (see, e.g., Xiao et al., J. Cell. Biochem. 74:596 (1999) and Wang et al., J. Bone. Miner. Res. 14:893 (1999)). The change of Cbfa1/Runx2 reporter activity in stably transfected MC3T3-E1 cells is not dramatic when treated with Compound A.
(§1) 3T3-L1 cells, C2C12 cells, and MC-3T3E1 cells were treated with DMSO (control), BMP-4(300 ng/mL), BMP-4 (100 ng/mL) and Compound A (1 μM), or 0.1 μM, 0.5 μM, 1 μM, 5 μM, or 10 μM Compound A. ALP activity was measured as described in Example 1 above, after four days of treatment.

C3H10T1/2 cells [1] = assay: Alkaline phosphatase (ALP) enzymatic assay in C3H10T1/2 cells; type: cell-based, mouse
Procedure: Alkaline Phosphatase Assay: C3H10T1/2 cells were expanded in T175 flasks; cells at the 13th passage were detached by trypsin/EDTA and diluted in the growth media. The resulting cell suspension was then plated into black clear bottom 384-well plates (Greiner) with 2500 cells/well in 100 μL growth media using a Multi-dropTM liquid delivery system (Titertek Instruments). After an overnight incubation, cells were attached to the bottom of the wells. A stock solution of Compound A in DMSO (500 nL) was delivered into corresponding well using a Mini TrakTM multiposition dispenser system (Packard BioScience) to make the final concentration of 5 μM of each compound. Cells were then incubated at 37° C. in 5% CO2. After 4 days, the media was removed and 10 μL of Passive Lysis Buffer (Promega) was added into each well. After 5 min, 10 μL of alkaline phosphatase substrate solution (1 mM in pH 10 buffer, 2'-[2'-benzothiazoyl]-6'-hydroxybenzothiazole phosphate (Promega) was added to each well. After a 15 minute incubation at room temperature, the plates were read on an Acquest high-throughput plate reader (Molecular Devices) using the manufacturer's protocol. C3H10T1/2 cells were treated with DMSO (control), BMP-4(300 ng/mL), BMP-4 (100 ng/mL) and Compound A (1 μM), or 0.5 μ[…], or 10 μM Compound A. Alkaline phosphatase (ALP) activity was measured as described in Example 2 above, after two, four, and six days of treatment.

3T3-L1 cells = assay: Alkaline phosphatase (ALP) activity in 3T3-L1 pre-adipocyte cells; type: cell-based, mouse
Procedure: Alkaline Phosphatase Assay: C3H10T1/2 cells were expanded in T175 flasks; cells at the 13th passage were detached by trypsin/EDTA and diluted in the growth media. The resulting cell suspension was then plated into black clear bottom 384-well plates (Greiner) with 2500 cells/well in 100 μL growth media using a Multi-drop™ liquid delivery system (Titertek Instruments). After an overnight incubation, cells were attached to the bottom of the wells. A stock solution of Compound A in DMSO (500 nL) was delivered into corresponding well using a Mini Trak™ multiposition dispenser system (Packard BioScience) to make the final concentration of 5 μM of each compound. Cells were then incubated at 37° C. in 5% CO2. […] After 5 min, 10 μL of alkaline phosphatase substrate solution (1 mM in pH 10 buffer, 2′-[2′-benzothiazoyl]-6′-hydroxybenzothiazole phosphate (Promega) was added to each well. After a 15 minute incubation at room temperature, the plates were read on an Acquest high-throughput plate reader (Molecular Devices) using the manufacturer's protocol.
as §1

[2] = test system: alkaline phosphatase, collagen type I and osteoponin; assay: Morphological and transcriptional analysis of osteogenesis (FIG. 5); type: cell-based
C3H10T1/2 cells [3] = assay: Morphology of C3H10T1/2 cells under light microscopy; type: cell-based, mouse; details: 2 μM for 4 days
Procedure: C3H10T1/2 cells were treated with DMSO (1%) and Compound A (purmorphamine) (2 μM) for 4 days. C2C12 cells were treated with DMSO (1%), Compound A (purmorphamine) (2 μM) or BMP-4 (300 ng/mL) for 4 days. The morphology of the cells was examined under light microscopy.

[4] = test system: Cbfa1/Runx2 gene promoter; assay: Cbfa1/Runx2 reporter gene assay, stably transfected MC3T3-E1 cells; type: cell-based, mouse
From the text: Cbfa1/Runx2 Reporter Gene Assay: The murine Cbfa1/Runx2 gene promoter region (1818 bp) was amplified by PCR from mouse genomic DNA library (Clontech) using the following primers: The resulting PCR product was inserted into Topo cloning vector (Invitrogen), amplified and sequenced. The resulting plasmid was digested with restriction enzymes Mlu and XhoI (New England Biolab) and the 1.8 kb fragment was inserted into the Mlu/XhoI cloning sites in pGL3-BV luciferase reporter vector (Promega). […] After an overnight incubation, the cells reached 80% confluency. Plasmid DNA (1 μg) was transfected into cells using 3 μL of Fugene 6 transfection reagent (Roche) using the manufacturer's protocol. After 8 hours, the transfected cells were plated into 96-well assay plates (Corning) and treated with 300 ng/mL of recombinant human bone morphogenetic protein 4 (BMP-4) (Sigma), 1% DMSO (Sigma) or different concentrations of Compound A (dissolved in DMSO). The cells were incubated for 4 days, then the luciferase activity in the cells was assayed using the Bright-Glo luciferase assay kit (Promega) using the manufacturer's protocol. Luminescence signals were detected by Acquest AD (Molecular Devices) plate reader. Due to the low transfection efficiency of MC3T3-E1 cells, the Cbfa1/Runx2 reporter assay was carried out with stably transfected MC3T3-E1 cells. […]

[5] = test system: Cbfa1/Runx2 gene promoter; assay: Cbfa1/Runx2 reporter gene assay in C2C12 cells; type: cell-based, mouse
From the text: (§2) Cbfa1/Runx2 Reporter Gene Assay: The murine Cbfa1/Runx2 gene promoter region (1818 bp) was amplified by PCR from mouse genomic DNA library (Clontech) using the following primers: The resulting PCR product was inserted into Topo cloning vector (Invitrogen), amplified and sequenced. The resulting plasmid was digested with restriction enzymes Mlu and XhoI (New England Biolab) and the 1.8 kb fragment was inserted into the Mlu/XhoI cloning sites in pGL3-BV luciferase reporter vector (Promega). For transient transfection assays, cells were seeded in a 6-well plate at a density of 30,000 cells/well in 2 mL of growth medium. After an overnight incubation, the cells reached 80% confluency. Plasmid DNA (1 μg) was transfected into cells using 3 μL of Fugene 6 transfection reagent (Roche) using the manufacturer's protocol. After 8 hours, the transfected cells were plated into 96-well assay plates (Corning) and treated with 300 ng/mL of recombinant human bone morphogenetic protein 4 (BMP-4) (Sigma), 1% DMSO (Sigma) or different concentrations of Compound A (dissolved in DMSO). The cells were incubated for 4 days, then the luciferase activity in the cells was assayed using the Bright-Glo luciferase assay kit (Promega) using the manufacturer's protocol. Luminescence signals were detected by Acquest AD (Molecular Devices) plate reader. […]

[6] = test system: Cbfa1/Runx2 gene promoter; assay: Cbfa1/Runx2 reporter gene assay in 3T3-L1 cells; type: cell-based, mouse; details: 3T3-L1 pre-adipocyte cells
From the text: as §2

C3H10T1/2 cells [7] = assay: Histochemical staining for endogenous alkaline phosphatase expression in C3H10T1/2 cells; type: cell-based, mouse; details: 4 days; for cells stained positive for ALP: Compound A 2 μM, BMP-4 300 ng/mL
Procedure: Histochemical Staining for Endogenous Alkaline Phosphatase Expression: C3H10T1/2 cells were seeded in 96-well assay plates (Corning) at a density of 10,000 cells/well, and treated with 300 ng/mL of BMP-4, 1% DMSO, 2 μM of Compound A, or 100 ng/mL of BMP and 1 μM of Compound A for 4 days. The cells were then washed 3 times with 200 μL PBS and fixed by a 15 minute incubation in a 10% formalin solution (Sigma). The fixed cells were washed again with 3 times with 200 μL PBS and stained with the Alkaline Phosphatase Staining Kit 86R (Sigma Diagnostics) using the manufacturer's protocol. The images were taken on a Nikon Eclipse TE300 microscope, and ALP positive cells were counted manually from the images.
C3H10T1/2 cells were treated with DMSO (a), 300 ng/mL of BMP-4 (b), 2 μM of Compound A (c), and 100 ng/mL of BMP and 1 μM of Compound A (d) for 4 days and stained for ALP activity. ALP positive cells were stained red and the cell nuclei were stained blue.

[8] = test system: Cbfa1/Runx2 gene promoter; assay: Cbfa1/Runx2 reporter gene assay, transiently transfected C3H10T1/2 cells; type: cell-based, mouse
From the text: as §2

| Molecule | terminal differentiation of MC3T3-E1 cells (MC3T3-E1 cells) | effectiveness in inducing the expression of ALP compared with BMP-4 (C3H10T1/2 cells [1]; C3H10T1/2 cells, FIG. 1) | EC50 (C3H10T1/2 cells [1]; Mus musculus, C3H 10T1/2, ALP enzymatic assay, C3H10T1/2 cells) [nM] | increase in ALP (C3H10T1/2 cells [1]; after treatment for 4 days, compared with 1% DMSO treatment) [fold] | increase in ALP level (3T3-L1 cells; optimal concentration of 5 μM) [fold] | expression of alkaline phosphatase, collagen type I and osteoponin ([2]; FIG. 5A) | DNA microarray analysis ([2]; FIG. 5B) | morphology of the cells (C3H10T1/2 cells [3]) | change of Cbfa1/Runx2 reporter activity [4] | Cbfa1/Runx2 gene expression [5] | Cbfa1/Runx2 expression [6] | cells stained positive for ALP (C3H10T1/2 cells [7]) | Cbfa1 gene upregulation ([8]; C3H10T1/2 cells, FIG. 4B) | increase in Cbfa1/Runx2 reporter activity ([8]; treatment for 4 days, transient transfection) | induction of ALP expression (3T3-L1 cells; BMP-4 alone) | ALP expression level of induced cells compared to cells treated with Compound A (C3H10T1/2 cells [7]; histochemical staining) |
| --- | --- | --- | --- | --- | --- | --- | --- | --- | --- | --- | --- | --- | --- | --- | --- | --- |
| c1ccc2c(Oc3nc(Nc4ccc(N5CCOCC5)cc4)c4ncn(C5CCCCC5)c4n3)cccc2c1 [Compound A, 2-(1-Naphthoxy)-6-(4-morpholinoanilino)-9-cyclohexylpurine] | promote the terminal differentiation | more effective than BMP-4 | 1000 | > 50 | 9 | induces expression | induces expression of a number of transcription factors and proteins | changed from fibroblast (long and spindle-shaped) to osteocyte (small and round) | not dramatic | can be induced by Compound A to express the Cbfa1/Runx2 gene | induces Cbfa1/Runx2 expression | more than 80% | induces Cbfa1 gene upregulation | more than 6 fold | – | – |
| BMP-4: recombinant human bone morphogenetic protein 4 (BMP-4) (Sigma) (protein, UniProt P12644 293-408, looked up) Bone morphogenetic protein 4: SPKHHSQRARKKNKNCRRHSLYVDFSDVGWNDWIVAPPGYQAFYCHGDCPFPLADHLNSTNHAIVQTLVNSVNSSIPKACCVPTELSAISMLYLDEYDKVVLKNYQEMVVEGCGCR | promote the terminal differentiation | – | – | – | – | – | – | – | – | – | – | 40% | – | – | more than 40 fold | higher expression level of ALP |
